Assay results from the supplement of paper PMC10307832.

Columns and labels:
Assay in all cases: relative viability (nuclei count vs DMSO), 5 days (fraction); higher = more cells survive
[1] = compound: C1=CC2=C(C=C(C(=C2N=C1)O)N=NC3=CC4=C(C=C3)C=C(C=C4)S(=O)(=O)O)S(=O)(=O)O + CC(=O)c1c(C)c2cnc(Nc3ccc(N4CCNCC4)cn3)nc2n(C2CCCC2)c1=O [Palbociclib] (partner 0.5 µM)
Procedure, shortened: (§1)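 Lung cancer cell lines were pin-tool dosed in 1536-well plates on the day after seeding, with either a lone drug or a fixed anchor-drug dose plus five library-drug doses (not always all listed) in √10 steps. Nuclei were counted on 4× images after 5 days. Relative viability is the ratio of treated-well to vehicle-well nuclei counts, with each value a median of duplicate plates.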

AT-7519 + Vorinostat = compound: O=C(NC1CCNCC1)c1n[nH]cc1NC(=O)c1c(Cl)cccc1Cl [AT-7519] + O=C(CCCCCCC(=O)Nc1ccccc1)NO [Vorinostat] (partner 1 µM)
Procedure, shortened: as §1

[2] = compound: C1=CC2=C(C=C(C(=C2N=C1)O)N=NC3=CC4=C(C=C3)C=C(C=C4)S(=O)(=O)O)S(=O)(=O)O + C[C@@H](Oc1cc(-c2cnn(C3CCNCC3)c2)cnc1N)c1c(Cl)ccc(F)c1Cl [Crizotinib] (partner 1 µM)
Procedure, shortened: as §1

AT-7519 + Bortezomib = compound: O=C(NC1CCNCC1)c1n[nH]cc1NC(=O)c1c(Cl)cccc1Cl [AT-7519] + CC(C)C[C@H](NC(=O)[C@H](Cc1ccccc1)NC(=O)c1cnccn1)B(O)O [Bortezomib] (partner 0.002 µM)
Procedure, shortened: as §1

| Cell Line | relative viability ([1]; first compound 0.08 µM) | relative viability ([1]; first compound 0.253 µM) | relative viability ([1]; first compound 0.8 µM) | relative viability ([1]; first compound 2.53 µM) | relative viability ([1]; first compound 8 µM) | relative viability (AT-7519 + Vorinostat; first compound 0.01 µM) | relative viability (AT-7519 + Vorinostat; first compound 0.03162 µM) | relative viability (AT-7519 + Vorinostat; first compound 0.3162 µM) | relative viability (AT-7519 + Vorinostat; first compound 1 µM) | relative viability ([2]; first compound 0.08 µM) | relative viability ([2]; first compound 0.253 µM) | relative viability ([2]; first compound 0.8 µM) | relative viability ([2]; first compound 2.53 µM) | relative viability ([2]; first compound 8 µM) | relative viability (AT-7519 + Bortezomib; first compound 0.01 µM) | relative viability (AT-7519 + Bortezomib; first compound 0.03162 µM) | relative viability (AT-7519 + Bortezomib; first compound 0.3162 µM) | relative viability (AT-7519 + Bortezomib; first compound 1 µM) |
| --- | --- | --- | --- | --- | --- | --- | --- | --- | --- | --- | --- | --- | --- | --- | --- | --- | --- | --- |
| NCI-H2405 | 0.517 | 0.543 | 0.504 | 0.575 | 0.513 | 1.08 | 0.988 | 0.954 | 0.852 | 0.927 | 0.806 | 0.808 | 0.847 | 0.869 | 0.978 | 1.04 | 1.02 | 0.863 |
| NCI-H3122 | 0.215 | 0.185 | 0.176 | 0.2 | 0.216 | 1.06 | 1.07 | 1.04 | 0.757 | 0.285 | 0.29 | 0.275 | 0.271 | 0.274 | 1.03 | 1.01 | 1.06 | 0.688 |
| PC-3 [JPC-3] | 0.572 | 0.566 | 0.528 | 0.577 | 0.565 | 0.667 | 0.773 | 0.884 | 1.17 | 1.07 | 1.02 | 0.999 | 0.978 | 0.966 | 0.947 | 0.863 | 0.86 | 0.848 |
| PC-14 | 0.653 | 0.52 | 0.548 | 0.597 | 0.474 | 0.838 | 0.668 | 0.621 | 0.388 | 0.944 | 0.833 | 0.907 | 0.892 | 0.941 | 0.807 | 0.71 | 0.861 | 0.618 |
| RERF-LC-KJ | 1.31 | 1.13 | 1.11 | 1.06 | 1.01 | 0.776 | 0.666 | 0.631 | 0.459 | 0.828 | 0.797 | 0.782 | 0.872 | 0.869 | 1.1 | 1.14 | 1.08 | 0.797 |
| SK-LU-1 | 0.456 | 0.391 | 0.344 | 0.399 | 0.428 | 0.805 | 0.725 | 0.693 | 0.544 | 1 | 0.952 | 0.854 | 0.923 | 0.93 | 1.08 | 1.14 | – | 1.15 |
| SW 1573 | 0.463 | 0.41 | 0.397 | 0.38 | 0.0522 | 0.812 | 0.696 | 0.615 | 0.231 | 0.842 | 0.78 | 0.836 | 0.85 | 0.742 | 0.981 | 0.842 | 0.884 | 0.428 |
